Values of other authors, collected in patent US20120172427A1, “(Z)-2-CYANO-3-HYDROXY-BUT-2-ENOIC ACID-(4'-TRIFLUOROMETHYLPHENYL)-AMIDE TABLET FORMULATIONS WITH IMPROVED STABILITY” (SANOFI, priority 2009, published 2012).

What was measured:
[1] = system: immune cells and cell lines; conditions: wide variety of immune cells and cell lines; literature
[2] = target: dihydroorotate dehydrogenase (Homo sapiens, UniProt Q02127); conditions: Bruneau et al., Biochem. J. 1998
Chain of dihydroorotate dehydrogenase (Q02127 whole entry): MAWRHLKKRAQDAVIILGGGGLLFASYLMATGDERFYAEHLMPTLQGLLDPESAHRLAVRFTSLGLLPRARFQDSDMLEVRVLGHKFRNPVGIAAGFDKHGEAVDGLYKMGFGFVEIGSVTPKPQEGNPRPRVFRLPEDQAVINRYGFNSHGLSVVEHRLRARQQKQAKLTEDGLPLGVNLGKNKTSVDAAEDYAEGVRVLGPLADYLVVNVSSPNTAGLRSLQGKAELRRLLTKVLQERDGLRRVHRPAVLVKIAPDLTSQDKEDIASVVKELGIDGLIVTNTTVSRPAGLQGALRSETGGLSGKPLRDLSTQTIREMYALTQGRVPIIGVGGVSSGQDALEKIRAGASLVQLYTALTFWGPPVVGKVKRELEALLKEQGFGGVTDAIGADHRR

inhibition of dihydroorotate dehydrogenase [2]: inhibits
Structure (SMILES): C/C(O)=C(\C#N)C(=O)Nc1ccc(C(F)(F)F)cc1 [Teriflunomide, (Z)-2-cyano-3-hydroxy-but-2-enoic acid-(4′-trifluoromethylphenyl)-amide]
antiproliferative effects [1]: antiproliferative effects
